A short description of this data set: solvent given as SMILES.

As for `Nc1cc(N)cc(-c2nc3ccccc3s2)c1`, the absorption maximum came out at 360 nm (in C1CCCCC1); 360 nm (in C1COCCO1); 360 nm (in CC#N); 360 nm (in CC(C)O); 360 nm (in CCOC(C)=O); 360 nm (in CCOCC). Besides, the absorption maximum (in CO) was determined as 360 nm and the absorption maximum (in O) was 360 nm.

In the case of `N#Cc1ccc(C[C@H](N)C(=O)O)cc1`, the absorption maximum was 236.81 nm (in C1CCOC1), 233.58 nm (in CCO) and 233.33 nm (in O).

Where the note is “in CCO”, `CCOC(=O)c1cc(C(=O)OCC)c2cc([N+](=O)[O-])ccc2n1` gave an absorption maximum of 304 nm.

As for `CCCC1(CCC)c2cc(-c3ccc(C(C)(C)C)cc3)ccc2-c2ccc(-c3ccc4c(c3)C(CCC)(CCC)c3cc(-c5ccc(C(C)(C)C)cc5)ccc3-4)cc21`, the absorption maximum (in C1CCCCC1) amounted to 346 nm.

Consider `O=C1c2cccc3c(-n4c5ccccc5c5ccccc54)ccc(c23)C(=O)N1c1ccccc1`, for which the absorption maximum (in C1CCOC1) amounted to 408 nm, the absorption maximum (in CCCCCC) was 403 nm, the absorption maximum (in ClC(Cl)Cl) was found to be 405 nm and the absorption maximum (in ClCCl) was 419 nm.

Where the note is “in O”, `CCN(CC)c1ccc2c(c1)C(C)(C)C(=O)C=C2` showed an absorption maximum of 429 nm.

For `CCOC(=O)CN1C(=O)C2=C(c3ccc(N4CCCCC4)cc3)N(CC(=O)OCC)C(=O)C2=C1c1ccccc1`, the absorption maximum came out at 500 nm (in CC#N), 516 nm (in CS(C)=O) and 499 nm (in Cc1ccccc1).

The compound `Cc1c(C)n2c(COC(=O)CNC(=O)OC(C)(C)C)c(C)c(=O)n2c1=O` had an absorption maximum (in CCO) of 374 nm.

Under “in ClCCl”, `CC(C)(C)c1ccc2c3ccccc3c3cncnc3c2c1` displayed an absorption maximum of 348 nm.

As for `O=C(O)c1ccc(-c2nc(-c3ccccc3)c3c4ccccc4ccn23)cc1`, the absorption maximum (in CC#N) was 353 nm.

Under “in CC#N”, `F[B-]1(F)n2c(-c3ccccc3)cc(-c3ccccn3)c2N=C2C(c3ccccn3)=CC(c3ccccc3)=[N+]21` came in with an absorption maximum of 655 nm.

The compound `CC(C)(C)c1ccc2c(c1)c1cc(C(C)(C)C)ccc1n2-c1ccc(N(c2ccc(-c3ccc(-c4ccc(-c5ccc(-c6ccc(-c7ccc(N(c8ccc(-n9c%10ccc(C(C)(C)C)cc%10c%10cc(C(C)(C)C)ccc%109)cc8)c8ccc(-n9c%10ccc(C(C)(C)C)cc%10c%10cc(C(C)(C)C)ccc%109)cc8)cc7)s6)s5)s4)s3)cc2)c2ccc(-n3c4ccc(C(C)(C)C)cc4c4cc(C(C)(C)C)ccc43)cc2)cc1` showed an absorption maximum (in ClCCl) of 450 nm.

For the compound `N#C/C(=C/Nc1ccc(C#N)cc1)c1nc(-c2ccccc2)cs1`, the absorption maximum (in CC#N) amounted to 372 nm; the absorption maximum (in CCO) turned out to be 373 nm; the absorption maximum (in CN(C)C=O) is on record as 376 nm; the absorption maximum (in Cc1ccccc1) worked out at 377 nm; the absorption maximum (in ClCCl) worked out at 375 nm.

For the compound `CCN(CC)c1ccc2c(c1)oc(=O)c1c(=O)oc3cc(C#Cc4ccc(C#N)cc4)ccc3c12`, the absorption maximum is, setting by setting: (in CS(C)=O) 481 nm; (in ClCCl) 476 nm.

Where the note is “in ClC(Cl)Cl”, `CC(C)(C)[Si](C)(C)C#Cc1c2c(=O)c3ccccc3c2c(C#C[Si](C)(C)C(C)(C)C)c2c(=O)c3ccccc3c12` registered an absorption maximum of 526 nm.

In turn, `F[B-]1(F)n2c(cc3oc4ccccc4c32)C(c2ccc(I)cc2)=C2C=c3oc4ccccc4c3=[N+]21` had an absorption maximum (in ClC(Cl)Cl) of 637 nm.

Under “in ClCCl”, `CC(C)[Si](C#Cc1c2cc3ccccc3cc2c(C#C[Si](C(C)C)(C(C)C)C(C)C)c2nc3c4ccccc4c(=O)c4ccccc4c3nc12)(C(C)C)C(C)C` showed an absorption maximum of 615 nm.

In the case of `C(/C=C/c1ccc(-n2c3ccccc3c3ccccc32)cc1)=C\c1ccncc1`, the absorption maximum stood at 356 nm (in C1COCCO1), 350 nm (in CC#N), 360 nm (in CCCCCCC) and 353 nm (in CO).

Where the note is “in Cc1ccccc1”, `CCCCCCCCCCCCn1cccc1/C=C/c1cc(OCCCC)c(/C=C/c2cccn2CCCCCCCCCCCC)cc1OCCCC` displayed an absorption maximum of 411 nm.

Regarding `CC1=CC(C)=[N+]2C1=C(c1ccc(I)cc1)c1c(C)cc(C)n1[B-]2(Oc1ccccc1)Oc1ccccc1`, the absorption maximum (in ClC(Cl)Cl) came to 506 nm.

Compound `CC1(C)c2ccccc2N(c2ccc3c(c2)c2cc(N4c5ccccc5C(C)(C)c5ccccc54)ccc2c2nc4ccccc4nc32)c2ccccc21` registered an absorption maximum (in Cc1ccccc1) of 380 nm.

In the case of `CCn1c2ccccc2c2cc(-c3cc(-c4ccc5c(c4)c4ccccc4n5CC)nc(SC)n3)ccc21`, the absorption maximum is, setting by setting: (in C1CCOC1) 371 nm; (in CCOC(C)=O) 369 nm; (in CN(C)C=O) 374 nm; (in Cc1ccccc1) 370 nm; (in ClCCl) 370 nm.

With `Cc1cccc2cc3c(=O)n(C)c(=O)n(C)c3nc12`, the absorption maximum reads like this: (in CC#N) 359 nm; (in CC(C)O) 360 nm; (in CCO) 359 nm; (in CO) 361 nm; (in ClC(Cl)Cl) 362 nm; (in ClCCl) 362 nm.

`[O-][n+]1c(/C=C/c2cccs2)nc(N2CCOCC2)c2c1CCCC2`: the absorption maximum (in ClCCl) is reported as 400 nm.

With `C(=C\c1cccc2ccccc12)/c1ncc(-c2ccccc2)o1`, the absorption maximum (in ClCCl) is listed as 357 nm.

In turn, `Cc1cc(O)c(C(=O)/C=C/c2ccc(O)c(O)c2)c(=O)o1` came in with an absorption maximum (in CC#N) of 390 nm and an absorption maximum (in ClCCl) of 387 nm.

As for `CCN(CC)c1ccc2cc(-c3ccc(-c4ccc5c6ccccc6c6c7cc(-c8ccc(-c9cc%10ccc(N(CC)CC)cc%10oc9=O)cc8)ccc7c7ccccc7c6c5c4)cc3)c(=O)oc2c1`, the absorption maximum (in ClC(Cl)Cl) stood at 412 nm.

Turning to `CSc1ccc(/C=C/c2cnc3ccccc3n2)cc1`, the absorption maximum is, setting by setting: (in C1CCOC1) 376 nm; (in CC#N) 377 nm; (in CCCCCCC) 373 nm; (in CS(C)=O) 383 nm; (in ClCCl) 381 nm.

For the compound `COc1ccc(C2=C/C(=C\c3ccc(C#N)cc3)C(=O)N2)cc1OC`, under “in C1COCCO1”, the absorption maximum came out at 457 nm.

As to `CN(C)c1ccc(/C=C/c2nc3c(ccc4ccccc43)s2)cc1`, the absorption maximum runs as follows: (in C1CCCCC1) 402 nm; (in CC#N) 409 nm.

Consider `Cc1ccc2ccc3cccc4ccc1c2c34`, for which the absorption maximum runs as follows: (in CCCCCC) 338 nm; (in CO) 338 nm; (in ClCCl) 341 nm.

As to `CCCN1/C(=C/C=C(/C=C/C2=[N+](CCC)c3ccccc3C2(C)C)c2ccc3ccccc3n2)C(C)(C)c2ccccc21`, the absorption maximum is, setting by setting: (in CO) 629 nm; (in CS(C)=O) 641 nm; (in O) 633 nm.

`CN(C)c1ccc(/C=C/c2cc[n+](CCCCC[n+]3ccc(/C=C/c4ccc(N(C)C)cc4)cc3)cc2)cc1`: the absorption maximum worked out at 478 nm (in CC1COC(=O)O1); 478 nm (in CC#N); 476 nm (in CC(C)=O); 486 nm (in CC(C)O); 492 nm (in CCO); 478 nm (in CN(C)C=O). In addition, the absorption maximum is given as 484 nm (in CO); 479 nm (in CS(C)=O); 494 nm (in ClC(Cl)Cl); 457 nm (in O); 490 nm (in c1ccncc1).

For `COc1ccccc1-c1nc2c3cccnc3c3ncccc3c2n1-c1ccccc1`, for the setting “in Cc1ccccc1”, the absorption maximum is listed as 363 nm.

The compound `COc1cc2c(cc1OC)C1=C[C@H](c3ccccc3)C3(C(C(=O)O[C@@H]4C[C@H]5CC[C@@H]4C5)=C(C(=O)O[C@H]4C[C@@H]5CC[C@H]4C5)N1CC2)c1ccccc1-c1ccccc13` yielded an absorption maximum (in ClCCl) of 314 nm.

`c1ccc(C2=C(c3ccccc3)c3cccc4c3c(cc3nc5ccccc5nc34)O2)cc1` returned an absorption maximum (in ClCCl) of 494 nm.

As to `CCCCCCCCN1C(=O)c2ccc3c4c(-c5ccc(N(c6ccccc6)c6ccccc6)cc5)cc5c6c(ccc(c7c(-c8ccc(N(c9ccccc9)c9ccccc9)cc8)cc(c2c37)C1=O)c64)C(=O)N(CCCCCCCC)C5=O`, under “in ClC(Cl)Cl”, the absorption maximum was 645 nm.

`CN(C)c1ccc(-c2cc(-c3ccccc3)nn2C)cc1` returned an absorption maximum (in ClCCl) of 280 nm.

With `Cc1ccc(C)c2nc3c(=O)[nH]c(=O)[nH]c3nc12`, the absorption maximum (in CC#N) is reported as 388 nm.

On to `COc1cnc(-c2cc[n+](C3=C(F)C(F)(F)C(F)(F)[C-]3F)cc2)s1`, for which the absorption maximum by setting is: (in CC#N) 407 nm; (in CC(C)=O) 408 nm; (in CCO) 409 nm; (in CN(C)C=O) 410 nm; (in CO) 407 nm; (in CS(C)=O) 410 nm. Also, the absorption maximum reads like this: (in ClC(Cl)Cl) 433 nm; (in ClCCl) 430 nm.

In the case of `CC1=CC(C)=[N+]2C1=C(c1c3ccccc3c(-c3ccccc3)c3ccccc13)c1c(C)cc(C)n1[B-]2(F)F`, the absorption maximum is 503 nm (in CC#N); 505 nm (in CCCCCC); 504 nm (in CCO); 507 nm (in CN(C)C=O); 509 nm (in Cc1ccccc1); 507 nm (in ClCCl).

In turn, `COc1ccc(-c2nc(-c3cc([N+](=O)[O-])ccc3O)[nH]c2-c2ccc(OC)cc2)cc1` registered an absorption maximum (in CO) of 260 nm.

As for `CN(C)c1ccc(/C=C/c2ncnc3ccccc23)cc1`, the absorption maximum (in ClCCl) worked out at 433 nm.

Take `CCC1=C(C)C(=O)n2c1cc1c(c(C)c(C(=O)OCC(C)C)n1CC(C)C)c2=O`: the absorption maximum was found to be 397 nm (in C1CCCCC1); 397 nm (in CO); 397 nm (in CS(C)=O); 399 nm (in ClC(Cl)Cl); 397 nm (in c1ccccc1).

Consider `CCCCCCCCCCN1C(=O)c2cc(NCCCOCCO)c3c4c(cc(NCCCOCCO)c(c24)C1=O)C(=O)N(CCCCCCCCCC)C3=O`, for which the absorption maximum by setting is: (in CO) 604 nm; (in ClC(Cl)Cl) 609 nm.

The compound `CN(C)c1ccc(-n2c(-c3ccncc3)nc3nccnc32)cc1` displayed an absorption maximum (in CC#N) of 309 nm.

Values taken from the Deep4Chem optical property database.
